According to patent US10265321B2, “Uses of salt-inducible kinase (SIK) inhibitors” (Dana-Farber Cancer Institute, Inc., priority 2014, dated 2019):

Columns and labels:
[1] = test system: Il10-Thy1.1 reporter in 10BiT BMDCs; assay: Il10-Thy1.1 reporter gene detection in 10BiT BMDCs; assay type: cell-based, mouse; conditions: 2 days treatment (0.5 μM), zymosan 18 hr
Method: (§1) Bone marrow-derived DCs were differentiated from C57BL/6 bone marrow in the presence of GM-CSF-conditioned media. CD11c^+ CX3CR1^hi myeloid cells and CD11c^+ CX3CR1^− DCs were isolated from the small intestine lamina propria of Cx3cr1^eGFP/+ mice (12). Detection of cell-surface Thy1.1 expression on BMDCs from 10BiT reporter mice was conducted as described previously (24). Cell viability was estimated by change in total cellular ATP levels using CellTiterGlo assays (Promega). Preparation of recombinant SIK proteins and IC50 measurements were conducted as described previously (21). Total RNA was extracted using a NucleoSpin 96 RNA isolation kit (Macherey-Nagel) followed by cDNA synthesis and multiplex RT-PCR using a microfluidic dynamic array (Fluidigm). The concentrations of TNF-α, IL-6, IL-10, IL-12p40, IL-1β and RANTES in culture supernatants were detected using a FlexSet Cytometric bead array (BD Biosciences). Alternatively, IL-10 secretion was quantified using ELISA (BD Biosciences) or AlphaLISA (PerkinElmer) assays. NO production was estimated based on nitrate content in culture medium using the Greiss reagent.
Preparation of BMDCs from 10BiT reporter mice expressing an il10-Thy1.1 transgene, SIK inhibitor treatment and zymosan stimulation was conducted as described above. […]

[2] = test system: human MΦs or DCs; assay: Cytokine production by human macrophages and dendritic cells from PBMCs (ELISA); assay type: cell-based; conditions: 0.5 μM, 24 hr, zymosan 18 hr
Method: Heparinized blood from healthy donors was obtained from Research Blood Components. Peripheral blood mononuclear cells (PBMCs) were obtained by density centrifugation of blood diluted 50% (vol/vol) with PBS over Ficoll-Paque (Pharmacia Biotech). PBMCs were further purified by plastic adherence for 1 hr and washed 5× with PBS. Monocytes within the PBMC pool were differentiated towards DCs in X-VIVO media (Lonza) supplemented with IL-4 (50 ng/mL, R&D Systems) and GM-CSF (50 ng/mL, R&D Systems) or macrophages in X-VIVO media supplemented with GM-CSF (5 ng/mL) and IFN-γ (5 ng/mL; PeproTech) for 7 days as described previously (Smeekens S P, et al. (2013) Functional genomics identifies type I interferon pathway as central for host defense against Candida albicans. Nature communications 4:1342). After third day, half of the culture medium was replaced by fresh DC/macrophages differentiation medium.
After stimulation of cells with microbial ligands, the culture medium was removed, clarified by centrifugation for 10 min at 14,000×g, and the concentration of TNF-α, IL-6, IL-10, IL-12p40, IL-1β and RANTES were measured using FlexSet Cytokine Bead Array (BD Biosciences) according to the manufacturer's instructions. Where indicated, ELISAs were used to detect IL-10 and IL-12p70 (BD Biosciences) according to the manufacturer's instructions. […]

[3] = target: T1, SIK2 (Homo sapiens, UniProt Q9H0K1); assay: Protein kinase assay ([γ-32P] ATP, phosphocellulose paper) against SIK2; assay type: biochemical; conditions: for remaining activity at 0.1 µM / remaining activity at 1 µM: DMSO set to 100%; for remaining activity at 0.1 µM: read-out: Activity of protein kinase treated with 0.1 μM of I-1 (% control (DMSO)) SIK2; for remaining activity at 1 µM: read-out: Activity of protein kinase treated with 1 μM of I-1 (% control (DMSO)) SIK2; for IC50: read-out: Enzyme Inhibition IC50 SIK2
T1 construct: made in house
T1 sequence (Q9H0K1 whole entry): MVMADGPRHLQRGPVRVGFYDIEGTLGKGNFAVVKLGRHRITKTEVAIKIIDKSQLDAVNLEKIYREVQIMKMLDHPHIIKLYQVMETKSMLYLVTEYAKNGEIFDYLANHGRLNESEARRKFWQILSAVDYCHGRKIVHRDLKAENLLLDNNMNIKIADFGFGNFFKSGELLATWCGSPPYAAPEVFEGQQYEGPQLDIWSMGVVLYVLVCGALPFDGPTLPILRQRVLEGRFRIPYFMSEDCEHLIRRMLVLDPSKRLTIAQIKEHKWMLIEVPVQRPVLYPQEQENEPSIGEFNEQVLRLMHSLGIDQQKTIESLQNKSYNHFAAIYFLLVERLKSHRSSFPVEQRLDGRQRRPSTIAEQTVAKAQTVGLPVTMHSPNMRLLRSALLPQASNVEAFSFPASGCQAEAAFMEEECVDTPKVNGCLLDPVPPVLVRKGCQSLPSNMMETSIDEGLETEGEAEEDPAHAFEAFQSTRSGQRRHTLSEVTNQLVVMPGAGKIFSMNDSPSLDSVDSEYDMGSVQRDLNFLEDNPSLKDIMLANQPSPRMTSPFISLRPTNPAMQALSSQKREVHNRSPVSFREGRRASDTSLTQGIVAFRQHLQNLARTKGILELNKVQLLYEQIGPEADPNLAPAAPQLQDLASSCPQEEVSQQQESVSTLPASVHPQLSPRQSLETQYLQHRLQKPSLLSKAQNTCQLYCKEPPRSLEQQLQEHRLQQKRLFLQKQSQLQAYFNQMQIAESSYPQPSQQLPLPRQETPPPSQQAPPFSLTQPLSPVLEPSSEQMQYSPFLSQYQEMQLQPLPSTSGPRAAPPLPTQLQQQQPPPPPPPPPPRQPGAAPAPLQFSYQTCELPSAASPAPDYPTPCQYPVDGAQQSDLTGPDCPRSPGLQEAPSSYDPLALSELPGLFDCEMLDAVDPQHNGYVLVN
Method: as §1
(§2) In another set of experiments, the activities of the SIK inhibitors described herein against SIK were determined according to the methods reported in Hastie et al., Nature Protocols, 2006, 1, 968-971.
(§3) This buffer consisted of 50 mM Tris-HCl, pH 7.5, 0.1 mM EGTA, 1 mg ml^−1 bovine serum albumin and 0.1% (vol/vol) 2-mercaptoethanol.
(§4) An assay buffer of 500 mM Tris-HCl, pH 7.5, 1 mM EGTA, and 100 mM magnesium acetate was used for the protein kinase assay.
(§5) The specific activity of the [γ-^32P] ATP solution was 1×10^5 to 1×10^6 c.p.m. per nmol depending on what was needed to produce an optimal signal/noise ratio. Stocks of nonradioactive (“cold”) ATP were dissolved in 10 mM HEPES, and the pH of the resulting stock solutions was adjusted to 7.4. To measure the concentration of ATP, a sample of such a stock solution was diluted to 20 μM, and the absorbance of the diluted sample was measured at 259 nm. The absorbance of a 20-μM stock solution of ATP at 259 nm was about 0.31. The 1-mM solution of cold ATP was “spiked” with [γ-^32P] ATP to produce a radioactivity of 1×10^5 to 1×10^6 c.p.m. per nmol.
(§6) 1) The number of assay samples needed was determined based on, e.g., the following considerations: (i) each condition was assayed in duplicate; (ii) two controls containing peptide or protein substrate and ATP but no SIK were included to assess contamination by any free ATP not incorporated into substrate, alongside two controls lacking a peptide or protein substrate but containing ATP and SIK to correct for any incorporation of phosphate into the kinase itself (e.g., autophosphorylation); and (iii) a maximum of 40 samples were assayed manually at one time by a single person. Microcentrifuge tubes were label distinctly and were placed on ice.
(§7) 4) Dilute the SIK in enzyme dilution buffer and place on ice.
(§8) 5) Pipette 5 j±l of 10× concentrated assay buffer, 5 j±l peptide or protein substrate (the two “no-substrate” control tubes had 5 j±l water added instead of peptide or protein substrate), and 30 μl distilled water into each tube. Keep the tubes on ice.
(§9) 6) Add 5 μl diluted SIK to each tube, except for the two “no-enzyme” control tubes, which had 5 μl enzyme dilution buffer added, and still keeping the tubes on ice. In some cases, premixed “cocktails” of assay components were prepared containing peptide or protein substrate, assay buffer, and distilled water to limit the number of additions to each assay tube. Each of steps 7 to 14 was done behind a plexiglass shield.
(§10) 7) Insert each tube into the water bath at intervals of 15 s to allow the assay mixture to reach 30° C. Begin the SIK reactions by adding 5 μl of 1 mM [γ-^32P] ATP to each tube at intervals of 15 s. Close each tube, vortex for 1 s to mix the contents and immediately replace in a rack in the water bath. Incubate for 10 min at 30° C. […]

[4] = target: T2, SIK3 (Homo sapiens, UniProt Q9Y2K2); assay: Protein kinase assay ([γ-32P] ATP, phosphocellulose paper) against SIK3; assay type: biochemical; conditions: for remaining activity at 0.1 µM / remaining activity at 1 µM: DMSO set to 100%; for remaining activity at 0.1 µM: read-out: Activity of protein kinase treated with 0.1 μM of I-1 (% control (DMSO)) SIK3; for remaining activity at 1 µM: read-out: Activity of protein kinase treated with 1 μM of I-1 (% control (DMSO)) SIK3; for IC50: read-out: Enzyme Inhibition IC50 SIK3
T2 construct: made in house
T2 sequence (Q9Y2K2 whole entry): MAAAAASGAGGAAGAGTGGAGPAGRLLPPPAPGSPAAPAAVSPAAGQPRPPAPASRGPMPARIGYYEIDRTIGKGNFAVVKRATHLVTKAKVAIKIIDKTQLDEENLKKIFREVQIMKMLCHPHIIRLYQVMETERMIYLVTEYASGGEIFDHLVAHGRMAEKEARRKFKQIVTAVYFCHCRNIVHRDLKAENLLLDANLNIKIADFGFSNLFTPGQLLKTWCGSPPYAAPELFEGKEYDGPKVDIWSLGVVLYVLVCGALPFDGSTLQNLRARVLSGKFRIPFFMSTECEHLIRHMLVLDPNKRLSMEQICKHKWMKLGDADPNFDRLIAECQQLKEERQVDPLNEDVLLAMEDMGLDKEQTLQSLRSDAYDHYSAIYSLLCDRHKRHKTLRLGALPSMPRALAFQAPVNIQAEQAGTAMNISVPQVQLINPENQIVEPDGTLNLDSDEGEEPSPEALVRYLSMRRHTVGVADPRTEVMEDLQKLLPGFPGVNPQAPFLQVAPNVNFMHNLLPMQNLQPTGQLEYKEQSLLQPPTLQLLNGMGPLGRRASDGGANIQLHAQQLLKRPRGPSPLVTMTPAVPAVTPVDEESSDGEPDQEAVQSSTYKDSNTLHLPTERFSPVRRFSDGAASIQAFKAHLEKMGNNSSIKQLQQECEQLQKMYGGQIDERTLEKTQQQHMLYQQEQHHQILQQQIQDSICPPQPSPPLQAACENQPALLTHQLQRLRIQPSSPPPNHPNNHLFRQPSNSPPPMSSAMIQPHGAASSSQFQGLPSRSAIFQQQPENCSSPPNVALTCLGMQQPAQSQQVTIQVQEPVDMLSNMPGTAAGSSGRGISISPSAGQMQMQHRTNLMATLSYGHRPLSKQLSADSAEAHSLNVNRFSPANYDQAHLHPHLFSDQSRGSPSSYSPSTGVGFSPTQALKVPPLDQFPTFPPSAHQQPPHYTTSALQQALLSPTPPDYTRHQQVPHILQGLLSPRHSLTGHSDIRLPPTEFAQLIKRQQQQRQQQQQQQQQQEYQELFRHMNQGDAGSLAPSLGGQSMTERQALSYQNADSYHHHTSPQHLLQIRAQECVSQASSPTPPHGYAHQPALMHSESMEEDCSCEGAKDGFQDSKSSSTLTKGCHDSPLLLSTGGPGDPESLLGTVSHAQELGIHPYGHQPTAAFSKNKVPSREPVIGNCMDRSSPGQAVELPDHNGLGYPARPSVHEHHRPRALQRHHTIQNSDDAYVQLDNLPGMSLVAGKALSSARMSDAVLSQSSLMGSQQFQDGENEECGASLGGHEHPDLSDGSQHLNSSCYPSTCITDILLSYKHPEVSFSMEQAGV
Method: as §1, §2, §3, §4, §5, §6, §7, §8, §9, §10

`COc1ccc(N(C(=O)Nc2c(C)cccc2C)c2cc(Nc3ccc(N4CCN(C)CC4)cc3)ncn2)c(OC)c1` [HG-9-91-01] was tested, and the “enhancement of the fraction of BMDCs expressing Il10 following zymosan stimulation” value [1] was “more than 5 fold”, the “IL-10 production by human MΦs or DCs” value [2] was “enhanced IL-10 production” and the “IL-12p70 secretion by human MΦs or DCs” value [2] was “dramatically reducing IL-12p70 secretion”.
Molecule `Cc1cccc(C)c1NC(=O)N1C/C=C\COc2cccc(c2)Nc2cc1ncn2` [I-1] has a remaining activity at 0.1 µM [3] of 10%, a remaining activity at 1 µM [3] of 5% and an IC50 [3] of 9.72 nM. For the same molecule, the remaining activity at 0.1 µM [4] was 33%, the remaining activity at 1 µM [4] was 13% and the IC50 [4] was 89.1 nM.
`CCN1CCN(c2ccc(Nc3cc(-n4ccnc4Nc4c(C)cccc4C)ncn3)cc2)CC1` [II-1, 6-(2-((2,6-dimethylphenyl)amino)-1H-imidazol-1-yl)-N-(4-(4-ethylpiperazin-1-yl)phenyl)pyrimidin-4-amine] gave a remaining activity at 0.1 µM [3] of 37%, a remaining activity at 1 µM [3] of 9% and an IC50 [3] of 65.1 nM. For the same molecule, the remaining activity at 0.1 µM [4] was 45%, the remaining activity at 1 µM [4] was 16% and the IC50 [4] was 120 nM.
